ChEMBL document CHEMBL1156790, “Synthesis and structure-activity relationships of antitubercular 2-nitroimidazooxazines bearing heterocyclic side chains” (J Med Chem, 2010)
In brackets after ≈: the same amount, converted by molar mass.

What was measured:
[1] = Solubility in water at pH 7 at 20 degC; assay type: physicochemical
[2] = system: Vero; test: Cytotoxicity against african green monkey Vero cells after 72 hrs by tetrazolium dye assay; assay type: cell-based; details: Chlorocebus sabaeus
[3] = system: Mycobacterium tuberculosis; test: Antimycobacterial activity against Mycobacterium tuberculosis H37Rv expressing pFCA-luxAB after 10 days by luminescence-based low-oxygen recovery assay; assay type: functional; details: 240 h
[4] = system: Mycobacterium tuberculosis; test: Antimycobacterial activity against Mycobacterium tuberculosis H37Rv after 16 to 24 hrs by microplate alamar blue assay; assay type: functional
[5] = Metabolic stability in mouse liver microsomes after 1 hr at 37 degC; assay type: ADME, Microsome; details: liver microsomes, read-out: Stability
[6] = system: Mycobacterium tuberculosis; test: Antitubercular effect in Mycobacterium tuberculosis infected BALB/c mouse assessed as CFU reduction at 100 mg/kg, po administered 5 days a week for 3 weeks relative to PA-824; assay type: functional
[7] = Metabolic stability in human liver microsomes after 1 hr at 37 degC; assay type: ADME, Microsome; details: liver microsomes, read-out: Stability

Structure (SMILES)	solubility [1]	IC50 [2]	MIC [3]	MIC [4]	remaining at 1 h [5]	fold change (FC) [6]	remaining at 1 h [7]
O=[N+]([O-])c1cn2c(n1)OC[C@@H](OCc1nnc(-c3ccc(F)cc3)o1)C2	108 µg/mL (≈ 299 µM)	> 128 µM	17 µM (≈ 6.14 µg/mL)	2.4 µM (≈ 0.867 µg/mL)			
O=[N+]([O-])c1cn2c(n1)OC[C@@H](OCc1nnn(-c3ccc(OC(F)(F)F)cc3)n1)C2		> 128 µM	1.3 µM (≈ 0.555 µg/mL)	0.035 µM (≈ 0.015 µg/mL)	81%		
O=[N+]([O-])c1cn2c(n1)OC[C@@H](OCc1cnn(-c3ccc(OC(F)(F)F)cc3)n1)C2		> 128 µM	1.6 µM (≈ 0.682 µg/mL)	0.03 µM (≈ 0.0128 µg/mL)			
O=[N+]([O-])c1cn2c(n1)OC[C@@H](OCc1cnn(-c3ccc(C(F)(F)F)cc3)c1)C2	4.9 µg/mL (≈ 12 µM)	> 128 µM	2.3 µM (≈ 0.941 µg/mL)	0.54 µM (≈ 0.221 µg/mL)			
N#Cc1ccc(-n2cc(CO[C@@H]3COc4nc([N+](=O)[O-])cn4C3)nn2)cc1		> 128 µM	11 µM (≈ 4.04 µg/mL)	0.89 µM (≈ 0.327 µg/mL)			
O=[N+]([O-])c1cn2c(n1)OC[C@@H](OCc1cn(-c3ccc(F)cc3)nn1)C2		> 128 µM	6.9 µM (≈ 2.49 µg/mL)	1.2 µM (≈ 0.432 µg/mL)			
COc1ccc(-c2cc(CO[C@@H]3COc4nc([N+](=O)[O-])cn4C3)on2)cc1F		> 128 µM	2 µM (≈ 0.781 µg/mL)	1.1 µM (≈ 0.429 µg/mL)			
O=[N+]([O-])c1cn2c(n1)OC[C@@H](OCc1ccc(-c3ccc(C(F)(F)F)nc3)s1)C2	8.9 µg/mL (≈ 20.9 µM)	> 128 µM	4.4 µM (≈ 1.88 µg/mL)	0.05 µM (≈ 0.0213 µg/mL)	77%	2.3	85%
O=[N+]([O-])c1cn2c(n1)OC[C@@H](OCc1ccc(-c3ccc(F)cc3)s1)C2		> 128 µM	1.9 µM (≈ 0.713 µg/mL)	0.05 µM (≈ 0.0188 µg/mL)			
O=[N+]([O-])c1cn2c(n1)OC[C@@H](OCc1cnn(-c3ccc(C(F)(F)F)cc3)n1)C2	1 µg/mL (≈ 2.44 µM)	> 128 µM	2.1 µM (≈ 0.862 µg/mL)	0.05 µM (≈ 0.0205 µg/mL)			
O=[N+]([O-])c1cn2c(n1)OC[C@@H](OCc1cnn(-c3ccc(F)cc3)n1)C2		> 128 µM	1.4 µM (≈ 0.504 µg/mL)	0.17 µM (≈ 0.0613 µg/mL)			
O=[N+]([O-])c1cn2c(n1)OC[C@@H](OCc1ccc(-c3cc(C(F)(F)F)ccn3)s1)C2		> 128 µM	1.7 µM (≈ 0.725 µg/mL)	0.28 µM (≈ 0.119 µg/mL)			
COc1ccc(-c2cc(CO[C@@H]3COc4nc([N+](=O)[O-])cn4C3)on2)cn1		> 128 µM	4.1 µM (≈ 1.53 µg/mL)	2 µM (≈ 0.747 µg/mL)			
N#Cc1ccc(-c2ccc(CO[C@@H]3COc4nc([N+](=O)[O-])cn4C3)s2)cc1		> 128 µM	1.7 µM (≈ 0.65 µg/mL)	0.055 µM (≈ 0.021 µg/mL)	54%	0.02	85%
O=[N+]([O-])c1cn2c(n1)OC[C@@H](OCc1csc(-c3ccc(OC(F)(F)F)cc3)n1)C2		> 128 µM	1.5 µM (≈ 0.664 µg/mL)	1.2 µM (≈ 0.531 µg/mL)			
Cn1c(CO[C@@H]2COc3nc([N+](=O)[O-])cn3C2)cnc1-c1ccc(C(F)(F)F)cc1	16 µg/mL (≈ 37.8 µM)	> 128 µM	9.7 µM (≈ 4.11 µg/mL)	0.65 µM (≈ 0.275 µg/mL)			
O=[N+]([O-])c1cn2c(n1)OC[C@@H](OCc1ccc(-c3ccc(F)nc3)s1)C2		> 128 µM	2.3 µM (≈ 0.866 µg/mL)	0.86 µM (≈ 0.324 µg/mL)			
O=[N+]([O-])c1cn2c(n1)OC[C@@H](OCc1csc(-c3ccc(F)cc3)n1)C2		> 128 µM	2.8 µM (≈ 1.05 µg/mL)	0.35 µM (≈ 0.132 µg/mL)			
O=[N+]([O-])c1cn2c(n1)OC[C@@H](OCc1cnn(-c3ccc(OC(F)(F)F)cc3)c1)C2		> 128 µM	1.8 µM (≈ 0.766 µg/mL)	0.15 µM (≈ 0.0638 µg/mL)	64%	1.5	87%
O=[N+]([O-])c1cn2c(n1)OC[C@@H](OCc1ccn(-c3ccc(F)cc3)n1)C2		> 128 µM	7.2 µM (≈ 2.59 µg/mL)	0.11 µM (≈ 0.0395 µg/mL)			
O=[N+]([O-])c1cn2c(n1)OC[C@@H](OCc1cn(-c3ccc(OC(F)(F)F)cc3)nn1)C2		> 128 µM	3.3 µM (≈ 1.41 µg/mL)	0.075 µM (≈ 0.032 µg/mL)	74%	0.34	99%
O=[N+]([O-])c1cn2c(n1)OC[C@@H](OCc1nnn(-c3ccc(C(F)(F)F)cc3)n1)C2	5 µg/mL (≈ 12.2 µM)	> 128 µM	1.4 µM (≈ 0.576 µg/mL)	0.2 µM (≈ 0.0823 µg/mL)			
COc1ccc(-c2ccc(CO[C@@H]3COc4nc([N+](=O)[O-])cn4C3)s2)cc1F		> 128 µM	1 µM (≈ 0.405 µg/mL)	0.06 µM (≈ 0.0243 µg/mL)			
O=[N+]([O-])c1cn2c(n1)OC[C@@H](OCc1cc(-c3ccc(OC(F)(F)F)cc3)no1)C2		> 128 µM	1.2 µM (≈ 0.512 µg/mL)	0.55 µM (≈ 0.234 µg/mL)			
O=[N+]([O-])c1cn2c(n1)OC[C@@H](OCc1cn(-c3ccc(C(F)(F)F)cc3)nn1)C2	4.6 µg/mL (≈ 11.2 µM)	> 128 µM	3.4 µM (≈ 1.4 µg/mL)	0.11 µM (≈ 0.0451 µg/mL)			
O=[N+]([O-])c1cn2c(n1)OC[C@@H](OCc1cc(-c3ccc(C(F)(F)F)cc3)no1)C2	0.5 µg/mL (≈ 1.22 µM)	> 128 µM	2.6 µM (≈ 1.07 µg/mL)	0.17 µM (≈ 0.0698 µg/mL)			
N#Cc1ccc(-c2cc(CO[C@@H]3COc4nc([N+](=O)[O-])cn4C3)on2)cc1		> 128 µM	6.2 µM (≈ 2.28 µg/mL)	1.4 µM (≈ 0.514 µg/mL)			
COc1ccc(-n2cc(CO[C@@H]3COc4nc([N+](=O)[O-])cn4C3)nn2)cn1		> 128 µM	12 µM (≈ 4.48 µg/mL)	1.6 µM (≈ 0.597 µg/mL)			
